# In US20240053345A1, “POLYPEPTIDES BINDING SELECTIVELY HEPARIN OR HEPARAN SULFATE GLYCOSAMINOGLYCANS AND CELL-PENETRATING POLYPEPTIDES COMPRISING THE SAME” (SORBONNE UNIVERSITE, priority 2020, published 2024):
# Where a SMILES comes first, the peptide text is derived from it. The star is where a group is joined. Biotin = O=C1N[C@H]2[C@H](CS[C@H]2CCCCC(=O)*)N1
# What was measured:
# SKOV-3 cells = experiment: Internalization of peptides in SKOV-3 cells, also after sodium chlorate or GAG-specific enzyme pre-treatment; assay type: cell-based, human; settings: for internalization after chondroitinase ABC (ChABC) treatment: enzyme pre-treatment 2 h; for internalization after heparinases cocktail treatment: heparinases I, II and III pre-treatment 2 h; for cellular uptake in SKOV-3 compared to CHO-K1: 1 h at 37° C.
# Description: (§1) FIG. 2: Quantification of the internalization of peptides, studied in GAGs-deficient cells CHO-745 (white bar), wild type cells CHO-K1 (light grey bar) and two ovarian adenocarcinoma cells CaOV-3 (dark grey bar) and SKOV-3 (black bar) after 1 h incubation at 37° C. Experiments were done in duplicate or triplicate and repeated at least three times independently. Significance was tested using a student's t-test (NS:p>0.05, *0.05>p>0.01, **0.01>p>0.001, ***0.001>p).
# FIG. 4: Quantification of P3 after SKOV-3 pre-treatment with sodium chlorate for 24 h or GAG-specific enzymes for 2 h (a) and P1 after SKOV-3 pre-treatment with GAG-specific enzymes for 2 h (b). Experiments were done in duplicate or triplicate and repeated at least three times independently. Significance was tested using a student's t-test (NS:p>0.05, *0.05>p>0.01, **0.01>p>0.001, ***0.001>p).
# (§2) Peptides listed in Table 1 were incubated separately in the following four ovarian cell types which have different GAGs types and expression levels: wild type CHO-K1 (expressing heparan sulfate (HS), chondroitin sulfate A (CSA) and C (CSC)), CHO-pgs A475 (CHO-745) (genetically modified to express only 5-10% HS and CS), two human ovarian adenocarcinoma cells CaOV-3 (overexpressing HS and CSE) and SKOV-3 (overexpressing CSE). Peptides were incubated with one million cells at 37° C. for 1 h.
# (§3) Wild type Chinese Hamster Ovary (CHO-K1) cells and GAGs-deficient mutant CHO-745 cells which lack the xylosyltransferase needed for glycosaminoglycan (GAG) synthesis were grown in Dulbecco's modified Eagle's medium F-12 (DMEMF-12) with L-glutamine and 15 mM HEPES. HEK cells and HeLa cells were grown in DMEM with 4.5 g/L D-glucose and pyruvate. Two types of human ovarian cancer cell lines CaOV-3 and SKOV-3 were cultured in DMEM with Glutamax and McCoy's 5A medium, respectively. All complete culture medium was supplemented with 10% fetal bovine serum, penicillin (100,000 IU/L), streptomycin (100 mg/L). Cells were grown in a humidified atmosphere at 37° C. and 5% CO2.
# Tested Peptides were incubated separately in the following ovarian cell type: SKOV-3. A pre-treatment with sodium chlorate for 24 h or GAG-specific enzymes for 2 h.
# The inventors used different concentrations of chlorate to treat SKOV-3 and analyzed the internalization of P3. […] The inventors also checked that there is no cytotoxicity generated by 100 mM concentration of NaClO3. […] Not merely impairment of sulfation leads to significant P3 internalization decline, enzymatic GAGs degradation might also impact on peptide internalization. They used two specific enzymes: one is the blend of heparinases I, II and III that are extracted from Flavobacterium heparinum and hydrolyze the glycosidic bonds of glucosamine and uronic acids; the other one is chondroitinase ABC (ChABC) lyase purified from Proteus Vulgaris that specifically catalyzes the degradation of chondroitin 4-sulfate, chondroitin 6-sulfate containing (1-4)-β-D-hexosaminyl and (1-3)-β-D-glucuronosyl or (1-3)-α-L-iduronosyl linkages to disaccharides containing 4-deoxy-β-D-gluc-4-enuronosyl groups.
# [1] = system: CHO-745, CHO-K1, CaOV-3 and SKOV-3 cells; experiment: Quantification of internalization of peptides in four cell lines; assay type: cell-based; settings: CHO-K1 or the two ovarian cancer cells (CaOV-3, SKOV-3) vs CHO-745; 1 h incubation at 37° C.
# Description: as §1, §2, §3
# blood cells = experiment: Hemolysis; assay type: cell-based; settings: even at 50 μM for 2 h
# Description: (§6) The inventors tested cytotoxicity and hemolysis activity of the peptides incubated with CHO-K1 cells at different concentrations.
# [2] = Binding to chondroitin sulfate-E
# CaOV-3 cells = experiment: Internalization of peptides in CaOV-3 cells; assay type: cell-based, human; settings: for internalization efficacy in CaOV-3 compared to CHO-K1 / intracellular concentration of internalized peptide: 1 h at 37° C.; for intracellular concentration of internalized peptide: 1 pmol in 1 million cells taken as 1 μM (1 pL/cell)
# Description: as §1
# (§4) FIG. 3: Quantification of internalization of chimeric peptides P1, P3 and P5 in cells CHO-745 (a,b) and in CaOV-3 cells (c,d). Peptides were incubated with cells for 1 h along with heparin (a) or chondroitin sulfate-E (b). P1 was also incubated with CaOV-3 for 1 h along with heparin (c) and P3 incubated with CaOV-3 in the presence of CS-E (d) at different concentrations. Experiments were done in duplicate or triplicate and repeated at least three times independently.
# as §2, §3
# (§5) Tested Peptides were incubated separately in the following two ovarian cell types: CHO-745 and CaOV-3. The inventors incubated (7.5 μM) peptides with cells lines for 1 h along with exogenous heparin (HI) or chondroitin-4,6-sulfate (CSE) and quantified the internalized peptides by MS.
# CHO-745 cells = experiment: Internalization of peptides in GAGs-deficient cells with exogenous GAGs, quantified by MS; assay type: cell-based, Chinese Hamster; settings: for cellular quantity of internalized peptide: 7.5 μM peptide
# Description: as §4
# FIG. 5: The effect of heparin favoring P1 internalization can be reversed by addition of heparinase in […].
# as §3, §5
# P1 was incubated in the CHO-745 ovarian cell type with different concentrations of heparinase. Cells culture are similar to the example 1.
# [3] = co-incubation with 7.2 μg/ml HI, 1 h
# [4] = co-incubation with 7.2 μg/ml CSE, 1 h
# Description for CHO-K1 cells: as §6
Compound,internalization after chondroitinase ABC (ChABC) treatment (SKOV-3 cells; SKOV-3),internalization after heparinases cocktail treatment (SKOV-3 cells; SKOV-3),internalization compared with CHO-745 cells [1],hemolysis of blood cells (blood cells),binding to CSE [2],cytotoxicity (CHO-K1 cells),internalization efficacy in CaOV-3 compared to CHO-K1 (CaOV-3 cells),intracellular concentration of internalized peptide (CaOV-3 cells; CaOV-3) [µM],"effect of HI on relative internalization (CaOV-3 cells; CaOV-3, exogenous heparin, 1 h)",cellular quantity of internalized peptide (CHO-745 cells; [3]),"effect of CSE addition on internalization (CHO-745 cells; exogenous CSE, 1 h)",effect of degradation fragments of HI on internalization (CHO-745 cells; heparin degraded by heparinase),effect of intact HI on internalization (CHO-745 cells; intact heparin),cellular uptake in SKOV-3 compared to CHO-K1 (SKOV-3 cells),"internalization efficacy after sodium chlorate pre-treatment (SKOV-3 cells; SKOV-3, sodium chlorate 24 h, concentration-dependent)","effect of CSE addition on internalization (CaOV-3 cells; CaOV-3, CSE 7.2 μg/ml, 1 h)","effect of CSE addition on internalization (CaOV-3 cells; CaOV-3, CSE concentrations below 3.6 μg/ml, 1 h)",cellular quantity of internalized peptide (CHO-745 cells; [4])
"CC[C@H](C)[C@H](NC(=O)[C@H](CCCCN)NC(=O)[C@H](C)NC(=O)[C@H](CCCNC(=N)N)NC(=O)[C@H](CCCCN)NC(=O)[C@H](CC(N)=O)NC(=O)[C@H](CCC(N)=O)NC(=O)[C@H](Cc1ccccc1)NC(=O)[C@H](Cc1c[nH]c2ccccc12)NC(=O)[C@@H](NC(=O)[C@H](CCCCN)NC(=O)[C@@H](NC(=O)[C@H](CCC(N)=O)NC(=O)[C@H](CO)NC(=O)[C@H](CCCNC(=N)N)NC(=O)[C@@H]1CCCN1C(=O)[C@H](CCCNC(=N)N)NC(=O)[C@H](CCCCN)NC(=O)[C@H](CC(=O)O)NC(=O)[C@H](CCC(=O)O)NC(=O)[C@H](CCCCN)NC(=O)[C@H](CC(N)=O)NC(=O)[C@@H]1CCCN1C(=O)[C@H](CC(N)=O)NC(=O)[C@H](CCCCN)NC(=O)[C@H](CCCCN)NC(=O)[C@H](CCCCN)NC(=O)[C@@H]1CCCN1C(=O)[C@H](CCCCN)NC(=O)[C@H](CCCNC(=N)N)NC(=O)[C@H](CO)NC(=O)[C@H](CCCNC(=N)N)NC(=O)CNC(=O)CNC(=O)CNC(=O)CNC(=O)CNC(=O)CCCC[C@@H]1SC[C@@H]2NC(=O)N[C@@H]21)[C@@H](C)CC)[C@@H](C)CC)C(=O)N[C@@H](CCCCN)C(=O)N[C@@H](CCCCN)C(N)=O [P1, Biotin-G5-RSRKPKKKNPNKEDKRPR SQIKIWFQNKRAKIKK-NH2] (Biotin-GGGGGRSRKPKKKNPNKEDKRPRSQIKIWFQNKRAKIKK-NH2)",decrease,decrease,entered significantly more,no hemolysis,high binding affinity,not Cytotoxic,increased their internalization efficacy,7,favorable effect,around 21 pmol,made no effect,lost the ability,promoted P1 internalization,–,–,–,–,–
"CC[C@H](C)[C@H](NC(=O)[C@H](CCCCN)NC(=O)[C@H](C)NC(=O)[C@H](CCCNC(=N)N)NC(=O)[C@H](CCCCN)NC(=O)[C@H](CC(N)=O)NC(=O)[C@H](CCC(N)=O)NC(=O)[C@H](Cc1ccccc1)NC(=O)[C@H](Cc1c[nH]c2ccccc12)NC(=O)[C@@H](NC(=O)[C@H](CCCCN)NC(=O)[C@@H](NC(=O)[C@H](CCC(N)=O)NC(=O)[C@H](CO)NC(=O)[C@H](CC(C)C)NC(=O)[C@H](CCC(N)=O)NC(=O)[C@H](C)NC(=O)[C@H](CCCNC(=N)N)NC(=O)[C@@H](NC(=O)[C@H](Cc1ccccc1)NC(=O)[C@@H](NC(=O)[C@@H](NC(=O)[C@H](CCCNC(=N)N)NC(=O)[C@H](CCC(=O)O)NC(=O)[C@H](CCCNC(=N)N)NC(=O)[C@H](CCCNC(=N)N)NC(=O)[C@H](CCC(N)=O)NC(=O)[C@H](CCCCN)NC(=O)[C@H](CCCNC(=N)N)NC(=O)CNC(=O)CNC(=O)CNC(=O)CNC(=O)CNC(=O)CCCC[C@@H]1SC[C@@H]2NC(=O)N[C@@H]21)[C@@H](C)O)[C@@H](C)O)[C@@H](C)O)[C@@H](C)CC)[C@@H](C)CC)C(=O)N[C@@H](CCCCN)C(=O)N[C@@H](CCCCN)C(N)=O [P3, Biotin-G5-RKQRRERTTFTRAQL SQIKIWFQNKRAKIKK-NH2] (Biotin-GGGGGRKQRRERTTFTRAQLSQIKIWFQNKRAKIKK-NH2)",significantly curtailed internalization,almost no difference,entered significantly more,no hemolysis,–,not Cytotoxic,increased their internalization efficacy,24,–,~28 pmol,–,–,–,apparently increased their cellular uptake,dramatically reduced,evokes P3 internalization,inhibited P3 internalization,around 6.5 pmol
Biotin-GGGG-KEDKRPRTAFTAEQL SQIKIWFQNKRAKIKK-NH2 [P5],–,–,entered significantly more,–,–,–,increased their internalization efficacy,7,–,~22 pmol,–,–,–,apparently increased their cellular uptake,–,–,–,2.2 pmol
"SQIKIWFQNKRAKIKK [En2H3, Ac-SQIKIWFQNKRAKIKK-NH2]",–,–,entered significantly more,–,–,–,increased their internalization efficacy,7,–,–,–,–,–,–,–,–,–,–
